{"source": "ChEMBL document CHEMBL4665719", "about": "“Development of SKI-349, a dual-targeted inhibitor of sphingosine kinase and microtubule polymerization” (Bioorg Med Chem Lett, 2020)", "key": {"[1]": {"target": "Cyclin-dependent kinase 1 (Homo sapiens) (UniProt P06493)", "sequence (P06493 whole entry, looked up)": "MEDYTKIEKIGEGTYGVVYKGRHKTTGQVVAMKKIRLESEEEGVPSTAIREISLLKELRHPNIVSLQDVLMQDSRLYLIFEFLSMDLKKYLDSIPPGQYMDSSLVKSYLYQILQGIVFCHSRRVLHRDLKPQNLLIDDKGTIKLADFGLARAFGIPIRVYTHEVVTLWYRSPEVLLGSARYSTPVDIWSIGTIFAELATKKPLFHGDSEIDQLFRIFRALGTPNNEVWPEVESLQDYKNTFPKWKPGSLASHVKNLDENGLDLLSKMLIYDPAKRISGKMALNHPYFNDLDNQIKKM", "assay": "Activation of CDK1 in human HL60/VCR cells assessed as induction of Bcl2 phosphorylation at Ser70 residue at 300 nM after 24 hrs in presence of Ro-3306 by Western blot analysis", "format": "cell-based"}, "[2]": {"assay": "Toxicity in sub-lethal irradiated C57BL/6J mouse xenografted with […] MLL-AF9 cells assessed as Hb level at 1 mg/kg measured after 2 weeks (reference value: 13.4 +/- 0.5 g/dl)", "format": "organism-based", "details": "in vivo, 336 h"}, "[3]": {"assay": "Cytotoxicity against human HL60/VCR cells assessed as reduction in cell viability after 48 hrs by MTT assay", "format": "functional, cell-based"}, "[4]": {"target": "T1, Sphingosine kinase 1 (Homo sapiens, UniProt Q9NYA1)", "T1 sequence (Q9NYA1 whole entry)": "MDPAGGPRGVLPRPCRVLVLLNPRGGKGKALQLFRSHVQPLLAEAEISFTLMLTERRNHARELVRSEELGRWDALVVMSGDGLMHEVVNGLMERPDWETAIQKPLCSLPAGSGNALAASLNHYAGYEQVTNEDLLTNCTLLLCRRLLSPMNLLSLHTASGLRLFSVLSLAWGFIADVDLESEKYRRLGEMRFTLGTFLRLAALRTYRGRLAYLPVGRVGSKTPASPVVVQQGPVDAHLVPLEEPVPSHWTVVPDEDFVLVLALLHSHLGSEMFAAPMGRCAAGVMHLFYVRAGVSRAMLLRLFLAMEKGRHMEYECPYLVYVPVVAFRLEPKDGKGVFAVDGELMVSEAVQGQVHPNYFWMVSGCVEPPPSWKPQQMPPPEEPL", "assay": "Binding affinity to SphK1 in HEK293 cells assessed as direct target engagement incubated for 24 hrs followed by thermal denaturation at 61 degreeC by ITDRF-CETSA assay", "format": "cell-based"}, "[5]": {"target": "Cyclin-dependent kinase 1 (Homo sapiens) (UniProt P06493)", "assay": "Activation of CDK1 in human HL60/VCR cells assessed as induction of Bcl2 phosphorylation at Ser70 residue at 300 nM after 24 hrs by Western blot analysis", "format": "cell-based", "details": "filed as activator"}, "[6]": {"target": "Glycogen synthase kinase-3 alpha (Homo sapiens) (UniProt P49840)", "sequence (P49840 2-483 limits assumed)": "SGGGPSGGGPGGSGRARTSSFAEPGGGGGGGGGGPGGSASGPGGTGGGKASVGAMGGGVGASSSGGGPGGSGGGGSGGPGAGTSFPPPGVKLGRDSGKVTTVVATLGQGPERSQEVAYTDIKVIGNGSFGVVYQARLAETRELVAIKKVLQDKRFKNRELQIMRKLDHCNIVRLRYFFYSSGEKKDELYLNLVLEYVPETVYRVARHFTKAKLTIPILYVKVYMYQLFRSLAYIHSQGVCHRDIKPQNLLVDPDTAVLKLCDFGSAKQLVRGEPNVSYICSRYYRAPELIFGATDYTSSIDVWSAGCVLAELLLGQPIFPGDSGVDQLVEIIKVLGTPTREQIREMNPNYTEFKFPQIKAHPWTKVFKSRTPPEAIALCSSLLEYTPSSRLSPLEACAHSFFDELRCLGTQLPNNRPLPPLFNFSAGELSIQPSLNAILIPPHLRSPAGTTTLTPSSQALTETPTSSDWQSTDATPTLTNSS", "assay": "Inhibition of wild type full length human GSK3A (M1 to S483 residues) expressed in bacterial expression assessed as residual activity at 1 uM by Kinomescan method relative to control"}, "[7]": {"assay": "Toxicity in sub-lethal irradiated C57BL/6J mouse xenografted with […] MLL-AF9 cells assessed as WBC level at 1 mg/kg measured after 2 weeks (reference value: 6.5 +/- 0.4 10^3/ml)", "format": "organism-based", "details": "in vivo, 336 h"}, "[8]": {"target": "Cyclin-dependent kinase 1 (Homo sapiens) (UniProt P06493)", "assay": "Activation of CDK1 in human HL60/VCR cells assessed as activation of caspase 7 at 300 nM after 24 hrs in presence of Ro-3306 by Western blot analysis", "format": "cell-based"}, "[9]": {"target": "T2, Sphingosine kinase 1/2 (Homo sapiens) (UniProt Q9NRA0+Q9NYA1)", "T2 sequence (Q9NYA1 whole entry, looked up, one chain of several)": "as the sequence (Q9NYA1 whole entry) above", "assay": "Inhibition of SPHK1/SPHK2 in human HL-60 cells assessed as induction of apoptosis by measuring spindle assembly checkpoint arrest at 1 uM after 16 hrs by Western blot analysis", "format": "cell-based"}, "[10]": {"target": "T1, Sphingosine kinase 1", "assay": "Inhibition of recombinant His6x-tagged human SphK1 expressed in HEK293 cells assessed as reduction in S1P formation using D-erythro-sphingosine as substrate by […]"}, "[11]": {"target": "T2, Sphingosine kinase 1/2 (Homo sapiens)", "assay": "Inhibition of SPHK1/SPHK2 in human HL-60 cells assessed as sphingosine level assessed per 10^6 cells at 500 nM after 24 hrs by LC-ESI/MS analysis (reference value: 18.3 +/- 3.5 pmol)", "format": "cell-based"}, "[12]": {"target": "Cyclin-dependent kinase 1 (Homo sapiens) (UniProt P06493)", "assay": "Activation of CDK1 in human HL-60 cells assessed as induction of Bcl2 phosphorylation at Ser70 residue at 300 nM after 24 hrs in presence of Ro-3306 by Western blot analysis", "format": "cell-based"}, "[13]": {"target": "T2, Sphingosine kinase 1/2 (Homo sapiens)", "assay": "Inhibition of SPHK1/SPHK2 in human HL-60 cells assessed as sphingosine-1-phosphate level assessed per 10^6 cells at 500 nM after 24 hrs by LC-ESI/MS analysis (reference value: 3.1 +/- 0.3 pmol)", "format": "cell-based"}, "[14]": {"assay": "Toxicity in sub-lethal irradiated C57BL/6J mouse xenografted with […] MLL-AF9 cells assessed as HCT level at 1 mg/kg measured after 2 weeks (reference value: 45 +/- 1.4 %)", "format": "organism-based", "details": "in vivo, 336 h"}, "[15]": {"assay": "Toxicity in sub-lethal irradiated C57BL/6J mouse xenografted with […] MLL-AF9 cells assessed as HCT level at 5 mg/kg measured after 2 weeks (reference value: 45 +/- 1.4 %)", "format": "organism-based", "details": "in vivo, 336 h"}, "[16]": {"target": "T2, Sphingosine kinase 1/2 (Homo sapiens)", "assay": "Inhibition of SPHK1/SPHK2 in human HL-60 cells assessed as C16:0 ceramide level assessed per 10^6 cells at 500 nM after 24 hrs by LC-ESI/MS analysis (reference value: 33.5 +/- 4.1 pmol)", "format": "cell-based"}, "[17]": {"target": "Tubulin (Homo sapiens) (UniProt P68371+Q9H4B7+P0DPH7+P68366+Q13509+Q71U36+P04350+Q3ZCM7+P07437+P68363+Q9BQE3+Q6PEY2+Q13885+Q9BVA1+Q9BUF5)", "assay": "Inhibition of tubulin polymerization in human MOLM-13 cells assessed as disruption of microtubule network at 500 nM after 18 hrs by FITC-staining based flow cytometry analysis", "format": "cell-based"}, "[18]": {"assay": "Toxicity in sub-lethal irradiated C57BL/6J mouse xenografted with […] MLL-AF9 cells assessed as RBC level at 1 mg/kg measured after 2 weeks (reference value: 9.8 +/- 0.3 10^6/ml)", "format": "organism-based", "details": "in vivo, 336 h"}, "[19]": {"target": "T3, Sphingosine kinase 2 (Homo sapiens) (UniProt Q9NRA0)", "T3 sequence (whole entry)": "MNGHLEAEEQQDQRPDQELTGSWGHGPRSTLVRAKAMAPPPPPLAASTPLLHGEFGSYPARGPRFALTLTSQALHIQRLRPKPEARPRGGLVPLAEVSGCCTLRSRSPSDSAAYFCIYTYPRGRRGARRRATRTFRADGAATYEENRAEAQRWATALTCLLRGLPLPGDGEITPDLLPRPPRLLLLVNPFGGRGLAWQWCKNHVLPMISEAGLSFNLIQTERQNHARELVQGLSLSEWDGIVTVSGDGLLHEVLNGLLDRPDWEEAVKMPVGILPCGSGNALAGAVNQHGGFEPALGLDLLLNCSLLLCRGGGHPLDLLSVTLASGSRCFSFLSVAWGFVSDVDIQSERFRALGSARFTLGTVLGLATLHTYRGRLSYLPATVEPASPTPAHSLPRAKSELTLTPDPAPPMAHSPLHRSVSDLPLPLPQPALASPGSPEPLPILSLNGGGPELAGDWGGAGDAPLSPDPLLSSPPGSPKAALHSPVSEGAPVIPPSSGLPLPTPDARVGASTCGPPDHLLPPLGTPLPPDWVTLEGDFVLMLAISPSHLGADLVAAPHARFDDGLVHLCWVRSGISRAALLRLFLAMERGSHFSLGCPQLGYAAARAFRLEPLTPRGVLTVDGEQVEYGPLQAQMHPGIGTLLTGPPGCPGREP", "assay": "Inhibition of SphK2 (unknown origin) catalytic activity at 2 to 5 uM", "details": "dose microM 2-5"}, "[20]": {"assay": "Toxicity in sub-lethal irradiated C57BL/6J mouse xenografted with […] MLL-AF9 cells assessed as platelet level at 1 mg/kg measured after 2 weeks (reference value: 687 +/- 53 10^3/ml)", "format": "organism-based", "details": "in vivo, 336 h"}, "[21]": {"target": "Non-receptor tyrosine-protein kinase TYK2 (Homo sapiens) (UniProt P29597)", "sequence (P29597 whole entry, the tested form may be a part)": "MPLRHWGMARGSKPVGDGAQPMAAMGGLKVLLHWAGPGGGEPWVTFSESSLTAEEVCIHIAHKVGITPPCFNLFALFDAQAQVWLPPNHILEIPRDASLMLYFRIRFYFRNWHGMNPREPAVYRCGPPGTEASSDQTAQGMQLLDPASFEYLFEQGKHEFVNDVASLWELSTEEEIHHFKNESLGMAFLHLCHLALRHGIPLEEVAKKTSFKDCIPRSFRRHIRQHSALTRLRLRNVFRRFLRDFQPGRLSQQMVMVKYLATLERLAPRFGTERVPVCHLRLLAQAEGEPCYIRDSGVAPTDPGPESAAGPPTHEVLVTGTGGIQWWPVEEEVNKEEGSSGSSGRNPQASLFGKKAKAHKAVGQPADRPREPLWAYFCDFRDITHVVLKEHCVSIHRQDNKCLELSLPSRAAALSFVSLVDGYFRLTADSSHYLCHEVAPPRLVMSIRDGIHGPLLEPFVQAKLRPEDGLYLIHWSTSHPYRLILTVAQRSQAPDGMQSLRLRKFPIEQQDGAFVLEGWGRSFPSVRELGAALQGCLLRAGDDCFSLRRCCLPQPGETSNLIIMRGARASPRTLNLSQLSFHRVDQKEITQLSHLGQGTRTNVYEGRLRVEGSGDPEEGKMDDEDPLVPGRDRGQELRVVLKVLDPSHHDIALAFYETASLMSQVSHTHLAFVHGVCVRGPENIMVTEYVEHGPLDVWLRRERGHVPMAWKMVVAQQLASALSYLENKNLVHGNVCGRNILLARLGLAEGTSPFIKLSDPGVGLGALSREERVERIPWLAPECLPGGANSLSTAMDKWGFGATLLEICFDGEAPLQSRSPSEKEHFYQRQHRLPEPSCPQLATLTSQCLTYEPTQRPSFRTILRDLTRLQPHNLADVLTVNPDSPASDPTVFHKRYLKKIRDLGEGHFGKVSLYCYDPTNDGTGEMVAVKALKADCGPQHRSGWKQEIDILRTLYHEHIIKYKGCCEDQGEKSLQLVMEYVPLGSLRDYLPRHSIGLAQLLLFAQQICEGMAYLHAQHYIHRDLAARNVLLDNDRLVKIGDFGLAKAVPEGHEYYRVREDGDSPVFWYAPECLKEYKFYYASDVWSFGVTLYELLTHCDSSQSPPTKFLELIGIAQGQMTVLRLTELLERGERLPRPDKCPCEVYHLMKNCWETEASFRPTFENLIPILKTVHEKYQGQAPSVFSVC", "assay": "Inhibition of wild-type human partial length TYK2 JH2 pseudokinase domain (G556 to D888 residues) expressed in mammalian expression system assessed as residual activity at 1 uM by Kinomescan method relative to control"}, "[22]": {"assay": "Toxicity in sub-lethal irradiated C57BL/6J mouse xenografted with […] MLL-AF9 cells assessed as RBC level at 5 mg/kg measured after 2 weeks (reference value: 9.8 +/- 0.3 10^6/ml)", "format": "organism-based", "details": "in vivo, 336 h"}, "[23]": {"target": "T2, Sphingosine kinase 1/2 (Homo sapiens)", "assay": "Inhibition of SPHK1/SPHK2 in human HL-60 cells assessed as C18:0 ceramide level assessed per 10^6 cells at 500 nM after 24 hrs by LC-ESI/MS analysis (reference value: 1.6 +/- 0.2 pmol)", "format": "cell-based"}}, "note": "Calls of active or inactive are those of the source. No cut-off for these calls is given here."}
{"smiles": "COc1ccc(Nc2nc(N)c(C(=O)c3ccc(OC)c(OC)c3)s2)cc1", "values": [{"measurement": "Activity", "setting": "[1]", "result": "inactive"}, {"measurement": "Activity", "setting": "[2]", "result": 12.8, "unit": "g/dL"}, {"measurement": "IC50", "setting": "[3]", "result": 23, "unit": "nM"}, {"measurement": "IC50", "setting": "[4]", "result": 60, "unit": "nM"}, {"measurement": "Activity", "setting": "[5]", "result": "Active"}, {"measurement": "Activity", "setting": "[6]", "result": 2.5, "unit": "%"}, {"measurement": "Activity", "setting": "[7]", "result": "8.7 10^3/ml"}, {"measurement": "Activity", "setting": "[8]", "result": "inactive"}, {"measurement": "Activity", "setting": "[9]", "result": "Active"}, {"measurement": "IC50", "setting": "[10]", "result": 30000, "unit": "nM"}, {"measurement": "Activity", "setting": "[11]", "result": 27, "unit": "pmol"}, {"measurement": "Activity", "setting": "[12]", "result": "inactive"}, {"measurement": "Activity", "setting": "[13]", "result": 2.3, "unit": "pmol"}, {"measurement": "Activity", "setting": "[14]", "result": 44, "unit": "%"}, {"measurement": "Activity", "setting": "[15]", "result": 41, "unit": "%"}, {"measurement": "Activity", "setting": "[16]", "result": 87, "unit": "pmol"}, {"measurement": "inhibition", "setting": "[17]", "result": "Active"}, {"measurement": "Activity", "setting": "[18]", "result": "9.2 10^6/ml"}, {"measurement": "inhibition", "setting": "[19]", "result": "inactive"}, {"measurement": "Activity", "setting": "[20]", "result": "1193 10^3/ml"}, {"measurement": "Activity", "setting": "[21]", "result": 14, "unit": "%"}, {"measurement": "Activity", "setting": "[22]", "result": "9 10^6/ml"}, {"measurement": "Activity", "setting": "[23]", "result": 4.7, "unit": "pmol"}]}
